Molecular target: T1, human RORgT (Homo sapiens, UniProt P51449)
T1 construct: expressed in transfected cells
T1 sequence (P51449 267-516): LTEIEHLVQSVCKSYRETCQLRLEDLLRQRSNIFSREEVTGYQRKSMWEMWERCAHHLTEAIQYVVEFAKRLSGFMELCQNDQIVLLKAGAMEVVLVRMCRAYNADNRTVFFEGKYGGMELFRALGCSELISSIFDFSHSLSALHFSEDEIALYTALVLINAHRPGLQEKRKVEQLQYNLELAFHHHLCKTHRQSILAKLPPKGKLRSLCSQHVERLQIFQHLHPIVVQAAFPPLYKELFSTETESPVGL
Assay: RORgT Gal4 Luciferase Reporter Gene Assay
Type: cell-based
Settings: engineered Jurkat cells overexpressing RORgT (LBD or full length) fused with Gal4 Luc reporter; 18 hours at 37° C.; luminescence
Method in brief: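 Jurkat cells expressing Gal4 Luc with either RORgT LBD (aa267-516) or full-length human RORgT, 10,000 cells/well, treated with compound (40 µM to 0.67 nM final, 3-fold dilutions) for 18 h at 37° C. Steady-Glo luminescence read; inhibition of constitutive activity as % signal-window reduction relative to a control compound.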

| Compound | EC50 |
| --- | --- |
| CC(=O)N1CCC(C(=O)N2CC[C@@]3(S(=O)(=O)c4ccc(F)cc4)c4ccc(OCc5c(Cl)cccc5Cl)cc4CC[C@@H]23)CC1 [Example 189, 1-{4-[(3aR,9bR)-7-[(2,6-dichlorophenyl)methoxy] -9b-(4-fluorobenzenesulfonyl)-1H,2H,3H,3aH,4H,5H,9bH-benzo[e]indole-3-carbonyl]piperidin-1-yl}ethan-1-one] | 41 nM |
| O=C(O)[C@H]1CC[C@H](C(=O)N2CC[C@@]3(S(=O)(=O)c4ccc(F)cc4)c4ccc(OCc5ccncc5Cl)cc4CC[C@@H]23)CC1 [Example 114, (1r,4r)-4-[(3aR,9bR)-7-[(3-chloropyridin-4-yl)methoxy]-9b-(4-fluorobenzenesulfonyl)-1H,2H,3H,3aH,4H,5H,9bH-benzo[e]indole-3-carbonyl]cyclohexane-1-carboxylic acid] | 53 nM |
| CC1(C(=O)N2CC[C@@]3(S(=O)(=O)c4ccc(F)cc4)c4ccc(OCc5c(F)cccc5Cl)cc4CC[C@@H]23)CCS(=O)(=O)CC1 [Example 7, ((3aR,9bR)-7-((2-chloro-6-fluorobenzyl)oxy)-9b-((4-fluorophenyl)sulfonyl)-4,5-dihydro-1H-benzo[e]indol-3(2H,3aH,9bH)-yl)(4-methyl-1,1-dioxidotetrahydro-2H-thiopyran-4-yl)methanone] | 22 nM |
| O=C(C1CCS(=O)(=O)CC1)N1CC[C@@]2(S(=O)(=O)c3ccccc3)c3ccc(OCc4cc(Cl)ccc4Cl)cc3CC[C@@H]12 [Example 129, 4-[(3aR,9bR)-9b-(benzenesulfonyl)-7-[(2,5-dichlorophenyl)methoxy]-1H,2H,3H,3aH,4H,5H,9bH-benzo[e]indole-3-carbonyl]-1λ^6-thiane-1,1-dione] | 17 nM |
| CC(=O)N[C@H]1CC[C@H](C(=O)N2CC[C@@]3(S(=O)(=O)c4ccc(F)cc4)c4ccc(OCc5c(F)cccc5C(F)(F)F)cc4CC[C@@H]23)CC1 [Example 108, N-[(1r,4r)-4-[(3aR,9bR)-7-{[2-fluoro-6-(trifluoromethyl)phenyl]methoxy} -9b-(4-fluorobenzenesulfonyl)-1H,2H,3H,3aH,4H,5H,9bH-benzo[e]indole-3-carbonyl]cyclohexyl]acetamide] | 131 nM |
| CC(=O)N1CC2(CC(C(=O)N3CC[C@@]4(S(=O)(=O)c5ccccc5)c5ccc(OCc6c(Cl)cccc6Cl)cc5CC[C@@H]34)C2)C1 [Example 68, 1-{6-[(3aR,9bR)-9b-(benzenesulfonyl)-7-[(2,6-dichlorophenyl)methoxy]-1H,2H,3H,3aH,4H,5H,9bH-benzo[e]indole-3-carbonyl]-2-azaspiro[3.3]heptan-2-yl}ethan-1-one] | 409 nM |
| CC(=O)N1CCC(C(=O)N2CC[C@@]3(S(=O)(=O)c4ccc(F)cc4)c4ccc(OCc5c(F)cccc5C(F)(F)F)cc4CC[C@@H]23)CC1 [Example 182, 1-{4-[(3aR,9bR)-7-{[2-fluoro-6-(trifluoromethyl)phenyl]methoxy}-9b-(4-fluorobenzenesulfonyl)-1H,2H,3H,3aH,4H,5H,9bH-benzo[e]indole-3-carbonyl]piperidin-1-yl}ethan-1-one] | 16 nM |
| O=C(O)C12CCC(C(=O)N3CC[C@@]4(S(=O)(=O)c5ccccc5)c5ccc(OCc6c(Cl)cccc6Cl)cc5CC[C@@H]34)(CC1)CC2 [Example 81, 4-[(3aR,9bR)-9b-(benzenesulfonyl)-7-[(2,6-dichlorophenyl)methoxy]-1H,2H,3H,3aH,4H,5H,9bH-benzo[e]indole-3-carbonyl]bicyclo[2.2.2]octane-1-carboxylic acid] | 25 nM |
| O=C(C1CCS(=O)(=O)CC1)N1CC[C@@]2(S(=O)(=O)c3ccc(F)cc3)c3ccc(OCc4cccc(Cl)c4)cc3CC[C@@H]12 [Example 153, 4-[(3aR,9bR)-7-[(3-chlorophenyl)methoxy]-9b-(4-fluorobenzenesulfonyl)-1H,2H,3H,3aH,4H,5H,9bH-benzo[e]indole-3-carbonyl]-1λ^6-thiane-1,1-dione] | 14 nM |
| CC(=O)NC1CC2(C1)CC(C(=O)N1CC[C@@]3(S(=O)(=O)c4ccccc4)c4ccc(OCc5c(Cl)cccc5Cl)cc4CC[C@@H]13)C2 (stereo partly drawn) [Example 67, N-{6-[(3aR,9bR)-9b-(benzenesulfonyl)-7-[(2,6-dichlorophenyl)methoxy]-1H,2H,3H,3aH,4H,5H,9bH-benzo[e]indole-3-carbonyl]spiro[3.3]heptan-2-yl}acetamide] | 416 nM |
| O=C(C1CCS(=O)(=O)CC1)N1CC[C@@]2(S(=O)(=O)c3ccccc3)c3ccc(OCc4ccccc4Cl)cc3CC[C@@H]12 [Example 127, 4-[(3aR,9bR)-9b-(benzenesulfonyl)-7-[(2-chlorophenyl)methoxy]-1H,2H,3H,3aH,4H,5H,9bH-benzo[e]indole-3-carbonyl]-1λ^6-thiane-1,1-dione] | 12 nM |
| COC(=O)[C@H]1CC[C@H](C(=O)N2CC[C@@]3(S(=O)(=O)c4ccc(F)cc4)c4ccc(OCc5c(F)cccc5C(F)(F)F)cc4CC[C@@H]23)CC1 [Example 183, methyl (1r,4r)-4-[(3aR,9bR)-7-{[2-fluoro-6-(trifluoromethyl)phenyl]methoxy}-9b-(4-fluorobenzenesulfonyl)-1H,2H,3H,3aH,4H,5H,9bH-benzo[e]indole-3-carbonyl]cyclohexane-1-carboxylate] | 48 nM |
| O=C(O)[C@H]1CC[C@H](CN2CC[C@@]3(S(=O)(=O)c4ccc(F)cc4)c4ccc(OCc5c(F)cccc5C(F)(F)F)cc4CC[C@@H]23)CC1 [Example 10] | 39 nM |
| O=C(CC1CCS(=O)(=O)CC1)N1CC[C@@]2(S(=O)(=O)c3ccccc3)c3ccc(OCc4c(Cl)cccc4Cl)cc3CC[C@@H]12 [Example 56, 4-{2-[(3aR,9bR)-9b-(benzenesulfonyl)-7-[(2,6-dichlorophenyl)methoxy]-1H,2H,3H,3aH,4H,5H,9bH-benzo[e]indol-3-yl]-2-oxoethyl}-1λ^6-thiane-1,1-dione] | 66 nM |
| NS(=O)(=O)CC(=O)N1CC[C@@]2(S(=O)(=O)c3ccc(F)cc3)c3ccc(OCc4cc(F)ccc4Cl)cc3CC[C@@H]12 [Example 194, 2-[(3aR,9bR)-7-[(2-chloro-5-fluorophenyl)methoxy]-9b-(4-fluorobenzenesulfonyl)-1H,2H,3H,3aH,4H,5H,9bH-benzo[e]indol-3-yl]-2-oxoethane-1-sulfonamide] | 189 nM |

Second part, the compound after the results:

| EC50 | Compound |
| --- | --- |
| 2.7 nM | O=C(C1CCS(=O)(=O)CC1)N1CC[C@@]2(S(=O)(=O)c3ccc(F)cc3)c3ccc(Oc4c(F)cccc4C(F)(F)F)cc3CC[C@@H]12 [Example 39, 4-[(3aR,9bR)-7-[2-fluoro-6-(trifluoromethyl)phenoxy]-9b-(4-fluorobenzenesulfonyl)-1H,2H,3H,3aH,4H,5H,9bH-benzo[e]indole-3-carbonyl]-1λ^6-thiane-1,1-dione] |
| 8.8 nM | CS(=O)(=O)N1CCC(C(=O)N2CC[C@@]3(S(=O)(=O)c4ccccc4)c4ccc(OCc5c(F)cccc5Cl)cc4CC[C@@H]23)CC1 [Example 137, 4-[(3aR,9bR)-9b-(benzenesulfonyl)-7-[(2-chloro-6-fluorophenyl)methoxy]-1H,2H,3H,3aH,4H,5H,9bH-benzo[e]indole-3-carbonyl]-1-methanesulfonylpiperidine] |
| 1.1 nM | O=C(O)[C@H]1CC[C@H](C(=O)N2CC[C@@]3(S(=O)(=O)c4ccc(F)cc4)c4ccc(CCc5c(Cl)cccc5Cl)cc4CC[C@@H]23)CC1 [Example 159, (1r,4r)-4-[(3aR,9bR)-7-[2-(2,6-dichlorophenyl)ethyl]-9b-(4-fluorobenzenesulfonyl)-1H,2H,3H,3aH,4H,5H,9bH-benzo[e]indole-3-carbonyl]cyclohexane-1-carboxylic acid] |
| 2.7 nM | Cc1ccccc1Cc1ccc2c(c1)CC[C@H]1N(C(=O)C3(C)CCS(=O)(=O)CC3)CC[C@@]21S(=O)(=O)c1ccc(F)cc1 [Example 46, 4-[(3aR,9bR)-9b-(4-fluorobenzenesulfonyl)-7-[(2-methylphenyl)methyl]-1H,2H,3H,3aH,4H,5H,9bH-benzo[e]indole-3-carbonyl]-4-methyl-1λ^6-thiane-1,1-dione] |
| 10 nM | O=C(O)[C@H]1CC[C@H](C(=O)N2CC[C@@]3(S(=O)(=O)c4ccc(F)cc4)c4ccc(Cc5ccccc5)cc4CC[C@@H]23)CC1 [Example 34, (1r,4r)-4-[(3aR,9bR)-7-benzyl-9b-(4-fluorobenzenesulfonyl)-1H,2H,3H,3aH,4H,5H,9bH-benzo[e]indole-3-carbonyl]cyclohexane-1-carboxylic acid] |
| 12 nM | O=C(C1CCS(=O)(=O)CC1)N1CC[C@@]2(S(=O)(=O)c3ccccc3)c3ccc(OCc4cc(F)ccc4Cl)cc3CC[C@@H]12 [Example 130, 4-[(3aR,9bR)-9b-(benzenesulfonyl)-7-[(2-chloro-5-fluorophenyl)methoxy]-1H,2H,3H,3aH,4H,5H,9bH-benzo[e]indole-3-carbonyl]-1λ^6-thiane-1,1-dione] |
| 3.9 nM | [2H]C([2H])(Oc1ccc2c(c1)CC[C@H]1N(C(=O)[C@H]3CC[C@H](C(=O)O)CC3)CC[C@@]21S(=O)(=O)c1ccc(F)cc1)c1c(F)cccc1Cl [Example 222] |
| 7.1 nM | O=C(C1CCS(=O)(=O)CC1)N1CC[C@@]2(S(=O)(=O)c3ccccc3)c3ccc(OCc4c(F)cccc4Cl)cc3CC[C@@H]12 [Example 123, 4-[(3aR,9bR)-9b-(benzenesulfonyl)-7-[(2-chloro-6-fluorophenyl)methoxy]-1H,2H,3H,3aH,4H,5H,9bH-benzo[e]indole-3-carbonyl]-1λ^6-thiane-1,1-dione] |
| 8.2 nM | O=C(CC1CCS(=O)(=O)C1)N1CC[C@@]2(S(=O)(=O)c3ccc(F)cc3)c3ccc(OCc4c(F)cccc4C(F)(F)F)cc3CC[C@@H]12 (mixture of isomers) [Example 17] |

From patent publication US20230295087A1, “AGONISTS OF ROR GAMMAt” (BRISTOL-MYERS SQUIBB COMPANY, priority 2019, published 2023)
